In ChEMBL document CHEMBL1135282, “Novel potent antagonists of human neuropeptide Y Y5 receptor. Part 1: 2-oxobenzothiazolin-3-acetic acid derivatives” (Bioorg Med Chem Lett, 2002) one finds Cmax, IC50 and inhibition data, which are given here for 24 molecules.

Series [1] in a line: Plasma concentration after oral administration of 100 mg/kg to rats. The format is ADME, organism-based. Set-up: dose 100 mg/kg, route oral. Particulars: rat.
Series [2] has as its target T1, Neuropeptide Y receptor type 5 (Homo sapiens, UniProt Q15761).
T1 sequence (Q15761 whole entry): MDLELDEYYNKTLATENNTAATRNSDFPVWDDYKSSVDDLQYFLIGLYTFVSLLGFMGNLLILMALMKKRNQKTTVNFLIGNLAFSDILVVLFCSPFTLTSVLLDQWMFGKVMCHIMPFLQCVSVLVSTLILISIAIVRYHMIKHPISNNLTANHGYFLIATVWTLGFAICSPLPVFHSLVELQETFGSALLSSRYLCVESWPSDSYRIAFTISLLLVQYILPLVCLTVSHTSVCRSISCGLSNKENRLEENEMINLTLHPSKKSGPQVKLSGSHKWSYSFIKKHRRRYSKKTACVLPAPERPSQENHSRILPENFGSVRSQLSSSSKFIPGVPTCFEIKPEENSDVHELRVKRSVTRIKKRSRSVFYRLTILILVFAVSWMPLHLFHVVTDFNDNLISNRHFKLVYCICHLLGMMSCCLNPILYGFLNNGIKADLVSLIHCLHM
Briefly: (§1) Tested for the inhibition of [125I]PYY binding to HEK 293 cells stably expressed with human neuropeptide NPY Y5 receptor at a concentration of 10e-6 M. The series is classed as cell-based, HEK293.

Series [3] concerns the target T2, Neuropeptide Y receptor type 5 (Homo sapiens) (UniProt Q15761).
T2 sequence (whole entry): T1 sequence (Q15761 whole entry)
Put plainly: Tested for the inhibition of [125I]PYY binding to HEK 293 cells stably expressed with human neuropeptide NPY Y5 receptor at a concentration of 10e-7 M. The series is classed as cell-based. Particulars: HEK293.

For series [4], the target named is T2, Neuropeptide Y receptor type 5 (Homo sapiens). Briefly: Tested for the inhibition of [125I]PYY binding to HEK 293 cells stably expressed with human neuropeptide NPY Y5 receptor at a concentration of 10e-8 M. Particulars: HEK293. The format is cell-based.
Series [5] has the same target. Briefly: Tested for the inhibition of [125I]PYY binding to HEK 293 cells stably expressed with human neuropeptide NPY Y5 receptor at a concentration of 10e-9 M. The format is cell-based. Particulars: HEK293.
The target in series [6] is T1, Neuropeptide Y receptor type 5. Put plainly: Inhibitory concentration of total specific binding of [125I]- -PYY to HEK 293 cells transfected with Human NPY-Y5 cDNA (compound prepared by manual synthesis technique). The series is classed as cell-based, HEK293.
The target is the same in series [7]. Briefly: Inhibitory concentration of total specific binding of [125I]- -PYY to HEK 293 cells transfected with the Human NPY-Y5 cDNA (compound prepared by parallel synthesis technique). The format is cell-based, HEK293.
The target in series [8] is T2, Neuropeptide Y receptor type 5 (Homo sapiens). Described as §1. The series is classed as cell-based. The conditions noted are these: HEK293.
The target of series [9] is T1, Neuropeptide Y receptor type 5. Put plainly: Tested for the inhibition of [125I]PYY binding to HEK 293 cells stably expressed with human neuropeptide NPY Y5 receptor. The format is cell-based, HEK293.

In [1], `Cc1cccc(C(O)CNC(=O)C2CCN(C(=O)Cn3c(=O)sc4ccc(Cl)cc43)CC2)n1` (stereo unspecified) [FR-235208] gave a Cmax of 15700 ng/mL. For the same molecule, the IC50 in series [2] came to 3.3 nM.

On to `Cc1cc(O)ccc1NC(=O)C1CCN(C(=O)Cn2c(=O)sc3ccc(Cl)cc32)CC1`, for which the inhibition in series [3] was 91.4%; in series [4] it was 41.1%; in [5], 5.6%; in series [8] it was 95%. The results for the IC50 in series [6] and in series [7] were 4.7 nM and 1.4 nM, respectively.

Regarding `COc1ccc(NC(=O)C2CCN(C(=O)Cn3c(=O)sc4ccc(Cl)cc43)CC2)cn1`, the inhibition in series [3] worked out at 88.5%; in [4], 70.3%; in series [5], 29.9%; in [8], 94%. In addition, the IC50 amounted to 2.3 nM in [6] and 2.6 nM in series [7].

Regarding `Cc1ccc2nc(NC(=O)C3CCN(C(=O)Cn4c(=O)sc5ccc(Cl)cc54)CC3)sc2c1`, the inhibition in series [3] amounted to 86.6%; in series [4] it was 68.1%; in series [5], 31.9%; in [8], 107%. The IC50 in series [6] was found to be 10 nM; in series [7] it was 2.8 nM.

As to `O=C(NCCOS(=O)(=O)O)C1CCN(C(=O)Cn2c(=O)sc3ccc(Cl)cc32)CC1`, the inhibition in series [8] came to 19.9%.

Take `COCCNC(=O)C1CCN(C(=O)Cn2c(=O)sc3ccc(Cl)cc32)CC1`: the inhibition in series [3] was 14.5%.

On to `O=C(Nc1ccc(Oc2ccccc2)cc1)C1CCN(C(=O)Cn2c(=O)sc3ccc(Cl)cc32)CC1`, for which the inhibition in series [3] was 99.4%; in series [4], 94.5%; in series [5] it was 53.2%; in series [8], 97.2%. Moreover, the IC50 in series [6] amounted to 1.5 nM; in series [7], 0.85 nM.

`O=C(NCC(O)c1ccccc1)C1CCN(C(=O)Cn2c(=O)sc3ccc(Cl)cc32)CC1` (stereo unspecified): the inhibition in [3] was 97.1%; in series [4] it was 79.4%; in series [5], 47.8%; in series [8], 108%. Besides, the IC50 in series [6] is 1.2 nM; in series [7], 1.1 nM.

In series [9], `O=C(Nc1ccc(Cl)c2ccccc12)C1CCN(C(=O)Cn2c(=O)sc3ccc(Cl)cc32)CC1` [FR-236478] had an IC50 of 0.23 nM. That is a sub-nanomolar value.

As to `O=C(Nc1cccc2ccccc12)C1CCN(C(=O)Cn2c(=O)sc3ccc(Cl)cc32)CC1`, the inhibition in series [3] amounted to 99%; in [4] it was 83.4%; in series [5], 49.3%; in series [8], 108%. The figures for the IC50 in series [6] and in series [7] were 17 nM and 0.71 nM, respectively.

As to `O=C(Nc1nc2cc(Cl)ccc2o1)C1CCN(C(=O)Cn2c(=O)sc3ccc(Cl)cc32)CC1`, the inhibition in [3] was found to be 102%; in [4], 68.4%; in series [5], 16.5%; in series [8] it was 86.2%. In addition, the IC50 came to 3.8 nM in [6] and 4.7 nM in [7].

In the case of `COc1ccc(CNC(=O)C2CCN(C(=O)Cn3c(=O)sc4ccc(Cl)cc43)CC2)cc1`, the inhibition in [3] turned out to be 105%; in series [4], 61.6%; in series [5], 11.5%; in [8], 98%. Also, the IC50 in series [6] turned out to be 2.3 nM; in series [7] it was 1.4 nM.

As to `O=C(Nc1ccc(F)c(C(F)(F)F)c1)C1CCN(C(=O)Cn2c(=O)sc3ccc(Cl)cc32)CC1`, the inhibition in series [3] was determined as 97.7%; in [4] it was 93.2%; in [5] it was 52.6%; in series [8], 104%. Moreover, the IC50 is 0.59 nM in [6] and 0.7 nM in [7].

`O=C(Nc1ccc(CCO)cc1)C1CCN(C(=O)Cn2c(=O)sc3ccc(Cl)cc32)CC1`: the inhibition is 101% in series [3], 74.6% in [4], 28.7% in [5] and 84.7% in series [8]. In addition, the half-maximal inhibitory concentration (IC50) in [6] was determined as 1.7 nM; in series [7], 2.9 nM.

`O=C(Cn1c(=O)sc2ccc(Cl)cc21)N1CCC(C(=O)N2CCc3ccccc32)CC1`: the inhibition in series [4] and in series [8] was 43.1% in each case.

`CC(=O)c1cccc(NC(=O)C2CCN(C(=O)Cn3c(=O)sc4ccc(Cl)cc43)CC2)c1`: the inhibition in series [3] came to 98.5%; in series [4], 76.8%; in series [5], 41.5%; in [8], 100%. For the same molecule, the figures for the half-inhibitory concentration (IC50) in series [6] and in series [7] were 0.59 nM and 2 nM, respectively.

For the molecule `Cc1cccc(O)c1NC(=O)C1CCN(C(=O)Cn2c(=O)sc3ccc(Cl)cc32)CC1`, the figures for the inhibition in series [3], in [4] and in series [8] were 67.8%, -5.3% and 88.8%, respectively.

In the case of `O=C(c1ccccc1)c1cccc(NC(=O)C2CCN(C(=O)Cn3c(=O)sc4ccc(Cl)cc43)CC2)c1`, the inhibition in [3] came to 101%; in series [4], 80.5%; in [5], 45.3%; in series [8], 102%. In addition, the IC50 in series [6] is 0.89 nM; in series [7], 1.4 nM.

As for `O=C(Cn1c(=O)sc2ccc(Cl)cc21)N1CCC(C(=O)N2CCCc3ccccc32)CC1`, the inhibition was 59.8% in [3], -3.5% in series [4], -4.5% in series [5] and 51.4% in series [8].

With `O=C(Cn1c(=O)sc2ccc(Cl)cc21)N1CCC(C(=O)N2CCc3ccccc3C2)CC1`, the values for the inhibition in [3] and in series [8] were 15.6% and 77.2%, respectively.

`NS(=O)(=O)c1ccc(CCNC(=O)C2CCN(C(=O)Cn3c(=O)sc4ccc(Cl)cc43)CC2)cc1`: the inhibition in series [3] is 88.8%; in series [4] it was 44.7%; in series [5] it was 19.5%; in series [8] it was 102%. Also, the values for the IC50 in series [6] and in series [7] were 6.1 nM and 9 nM, respectively.

Take `CCCCCCCCCCNC(=O)C1CCN(C(=O)Cn2c(=O)sc3ccc(Cl)cc32)CC1`: the inhibition in [3] came to 106%; in series [4], 89.6%. The IC50 amounted to 1.3 nM in [6] and 2.6 nM in [7].

In the case of `CN(CCc1ccccn1)C(=O)C1CCN(C(=O)Cn2c(=O)sc3ccc(Cl)cc32)CC1`, the results for the inhibition in series [3] and in [8] were -3.9% and 87.9%, respectively.

As to `O=C(Nc1ccccc1)C1CCN(C(=O)Cn2c(=O)sc3ccc(Cl)cc32)CC1` [FR-235656], the IC50 in series [9] worked out at 4.4 nM.

Usually Cmax stands for the highest concentration seen after dosing. In general, IC50 refers to the concentration at which inhibition is half-maximal. The inhibition is the change of the read-out against control, counted positive when it falls.
